According to BindingDB's records for doi:10.1016/s0960-894x(03)00408-6 (Millennium Pharmaceuticals, 2003):

Columns and labels:
Protein kinase C (PKC) = test: Inhibitory activity against protein kinase C.
[1] = molecular target: cAMP-dependent protein kinase catalytic subunit alpha/beta/gamma (Homo sapiens, UniProt P17612+P22694+P22612); test: Inhibitory activity against protein kinase A.

| SMILES | IC50 (Protein kinase C (PKC)) [µM] | IC50 [1] [µM] |
| --- | --- | --- |
| Clc1cc2c3cc[nH]cc-3nc2c(Cl)c1OCC1CC1 [6,8-Dichloro-7-cyclopropylmethoxy-9H-beta-carboline] | > 25 | > 25 |
| COc1ccc(C(=O)Nc2cc(Cl)cc3c4cc[nH]cc-4nc23)cc1 [N-(6-Chloro-9H-beta-carbolin-8-yl)-4-methoxy-benzamide] | > 25 | > 25 |
| COc1cccc(C(=O)Nc2cc(Cl)cc3c4cc[nH]cc-4nc23)c1 [N-(6-Chloro-9H-beta-carbolin-8-yl)-3-methoxy-benzamide] | > 25 | > 25 |
| COc1ccccc1C(=O)Nc1cc(Cl)cc2c3cc[nH]cc-3nc12 [N-(6-Chloro-9H-beta-carbolin-8-yl)-2-methoxy-benzamide] | > 25 | > 25 |
| O=[N+]([O-])c1cc(Cl)cc2c1[nH]c1cnccc12 [6-Chloro-8-nitro-9H-beta-carboline] | > 25 | > 25 |
